Measured values published in patent US20130297023A1, “Methods and Devices For Treating Intervertebral Disc Disease” (priority 2012, published 2013).

Assays:
bovine NP cells = assay: Real-time qPCR of LPS- or IL-1-induced catabolic genes and TLR-2 in bovine NP cell monolayers; type: cell-based
Procedure: (§1) Human spine segments (T11/12 to S1) were received within 24 hours of death of donors from the Gift of Hope Organ and Tissue Donor Network (Elmhurst, Ill.), after obtaining consent from the families. Each of the lumbar segments underwent magnetic resonance imaging (MRI). Intact disc specimens (Thompsons grade 2 or 3) were removed and processed aseptically (Thompson et al., 1990; Kim et al., 2009). After dissection of the NP portion of discs either from human or bovine tails, NP cells were released by enzymatic digestion in Dulbecco's modified Eagle's medium [(DMEM)/Ham's F-12 (1:1)] culture medium with sequential treatments of 0.2% pronase and 0.025% collagenase P, as previously described (Kim et al.; Loeser et al., 2003). Alginate beads and monolayers were prepared for long-term (21 days) and short-term studies (1-2 days) as previously described by our group (Kim et al.; Im et al., 2003; Im et al., 2007b; Im et al., 2008; Li et al., 2008a).
(§2) For short-term monolayer cultures, isolated NP cells from either bovine tails or human spine discs were counted and plated onto 12-well plates at 8×10^5 cells/cm^2 as previously described (Im et al., 2003; Im et al., 2007b). Cells were stimulated with either IL-1 (10 ng/mL, NCI) or LPS (10 μg/mL, Sigma-Aldrich, St. Louis, Mont.) in the presence or absence of MyD88 peptide inhibitor (MyD88i; IMGENEX, San Diego, Calif.) at the concentration of 100 μM, in 1 mL per well of serum-free medium for 24 hours at 37° C. under 5% CO2. Supernatants were collected 24 hours after the initiation of each treatment and subjected to western blotting analyses for secreted matrix-degrading enzyme production. Cells were harvested and prepared for either cell lysates or total RNA extraction followed by real-time qPCR analyses, as previously described (Li et al., 2008b). 18s rRNA was used for normalization.
(§3) Total RNA was isolated from the cells using Trizol reagent (Invitrogen, Carlsbad, Calif.) following the instructions provided by the manufacturer. Reverse transcription was carried out with 1 μg total RNA using the ThermoScript™ RT-PCR system (Invitrogen, Carlsbad, Calif.) for first strand cDNA synthesis.
(§4) For real-time qPCR, cDNA was amplified using MyiQ Real-Time qPCR Detection System (Bio-Rad Hercules, Calif.). The synthesized cDNA was subjected to real-time qPCR utilizing the Bio-Rad iQTM SYBR Green supermix (Bio-Rad Hercules, Calif.). A threshold cycle (Ct value) was obtained from each amplification curve using iQ5 Optical System Software provided by the manufacturer (Bio-Rad Hercules, CA). Relative mRNA expression was determined using the ^ΔΔCT and calculated as follows: ^ΔΔCT=^ΔCT (gene of interest)−^ΔCT (endogenous control). Gene quantification was conducted for entire, individual treatment groups and expressed in terms of fold change from untreated control levels. Expression of 18s rRNA was used as the internal control. The deviations in samples represent 3 different donors in 3 separate experiments.
Therefore, NP cells were treated with MyD88i (100 μM), LPS or IL-1, individually, or combinations of LPS and MyD88i or IL-1 and MyD88i for 24 hours. Resulting cellular responses were then analyzed for alterations in gene expression and/or secreted protein levels. Our data reveal the significant upregulation of collagenase (MMP-13) and aggrecanases (ADAMTS-4, ADAMTS-5) after stimulation with either LPS or IL-1 compared to control (untreated) in bovine NP cells (FIGS. 1A˜C).

human NP cells [1] = assay: Real-time qPCR and western blotting of LPS- or IL-1-induced MMP-13, MMP-1, ADAMTS-4 and iNOS in human NP cell monolayers; type: cell-based; conditions: co-treatment MyD88i 100 μM, 24 hr
Procedure: as §1, §2, §3, §4
Cell and tissue lysates were prepared using modified RIPA buffer, as previously described (Li et al., 2008a; Li et al., 2008c). The total protein concentrations of cell lysates were determined by a bicinchoninic acid protein assay (Pierce, Rockford, Ill., USA). An equal amount of protein was resolved by 10% SDS-polyacrylamide gels (SDS-PAGE) and transferred to a nitrocellulose membrane for immunoblot analyses, as described previously (Im et al., 2007b). MMP-13 and MMP-1 antibodies were provided by courtesy of Dr. Gillian Murphy (Cambridge University, UK) Immunoreactivity was visualized using the ECL system (Amersham Biosciences, Piscataway, N.J., USA) and the Signal Visual Enhancer system (Pierce), which magnifies the signal.

human NP cells [2] = assay: Gelatin zymography of conditioned media from LPS- or IL-1-stimulated human NP cells; type: cell-based; conditions: MyD88i 100 μM, 24 hr, p<0.01
Procedure: as §2, with “Cells were harvested and prepared for either cell lysates or total RNA extraction followed by real-time qPCR analyses, as previously described (Li et al., 2008b). 18s rRNA was used for normalization.” left out
Gelatin zymography was then performed as previously described (Gupta et al., 2007). […] After development, gel images were captured and the clear bands were analyzed using “ImageJ” image analysis software (www.imagej.nih.gov), and were expressed in arbitrary optical density units. […]
Because MyD88i effectively suppresses expression and/or production of multiple cartilage degrading enzymes, TLR-2 and stress-associated genes after stimulation with either LPS or IL-1 (FIGS. 1˜4), the role of MyD88i in antagonizing catalytic enzyme activity was further analyzed by performing reverse zymography (FIG. 5). […]

mouse lumbar spine discs = assay: Ex vivo intradiscal injection organ culture model, Safranin O-fast green histology for PG loss; conditions: intradiscal injection 150 μM per disc, IL-1 100 ng/mL, 6 days organ culture
Procedure: Lumbar spine segments from deceased mice were dissected under sterile conditions within 12 hrs after sacrifice at the Rush University animal facility for ex vivo organ culture, as previously described (Chiba et al., 1998). The requirement for the pre-treatment of MyD88 has been previously described (Ahmad et al., 2007). Therefore, intradiscal pre-injection of MyD88i ([…]) en bloc was performed using a 30-gauge needle (30 G, 1.50 μL volume). Injected discs were then separated and incubated in DMEM/Ham's F-12 medium supplemented with 1% mini-ITS. After 24 hrs, the MyD88i pre-injected discs were challenged with either IL-1 (100 ng/mL) or LPS (10 μg/mL) and further incubated for 6 days. Harvested discs were fixed in 4% paraformaldehyde and then decalcified in EDTA, which was changed every 5 days. The decalcified discs were paraffin embedded. Serial disc sections of exactly 5-μm thickness were obtained to prepare slides. Safranin O-fast green staining was performed to assess general morphology and the loss of PG in disc ground substance.
Harvested discs were fixed in 4% paraformaldehyde and decalcified in EDTA, which was changed every 5 days. The decalcified discs were paraffin embedded. Serial disc sections of exactly 5-μm thickness were obtained to prepare slides. […]

[3] = MyD88i 100 μM, IL-1 10 ng/mL, 24 hr, qPCR, p<0.05
[4] = MyD88i 100 μM, LPS 10 μg/mL, 24 hr, qPCR, p<0.01

## DRQIKIWFQNRRMKWKKRDVLPGT [MyD88i]
Bovine NP cells; [3]
  IL-1-induced upregulation of catabolic gene expression (MMP-13, ADAMTS-4, ADAMTS-5): significantly suppresses
  IL-1-stimulated TLR-2 levels: significant decrease
Bovine NP cells; [4]
  LPS-induced upregulation of catabolic gene expression (MMP-13, ADAMTS-4, ADAMTS-5): significantly suppresses
  LPS-stimulated TLR-2 levels: significant decrease
Bovine NP cells; initial experiments, monolayer cultures, different concentrations of MyD88i
  minimal dose demonstrating maximal effects: 100 µM
Human NP cells [1]; IL-1 10 ng/mL, p<0.05
  IL-1-induced collagenases MMP-13 and MMP-1, mRNA and protein levels: significant decreases
Human NP cells [1]; IL-1 10 ng/mL, qPCR, p<0.05
  induction of ADAMTS-4 expression by IL-1: significantly reduced
Human NP cells [1]; IL-1 10 ng/mL, qPCR, p<0.05 vs IL-1 alone
  IL-1-induced iNOS gene levels: significant suppression
Human NP cells [1]; LPS 10 μg/mL, p<0.01
  LPS-induced collagenases MMP-13 and MMP-1, mRNA and protein levels: significant decreases
Human NP cells [1]; LPS 10 μg/mL, qPCR, p<0.01
  induction of ADAMTS-4 expression by LPS: significantly reduced
Human NP cells [1]; LPS 10 μg/mL, qPCR, p<0.01 vs LPS alone
  LPS-induced iNOS gene levels: significant suppression
Human NP cells [2]; IL-1 10 ng/mL
  IL-1-induced catalytic enzyme activity (gelatin zymography, densitometry): markedly suppressed
Human NP cells [2]; LPS 10 μg/mL
  LPS-induced catalytic enzyme activity (gelatin zymography, densitometry): markedly suppressed
Mouse lumbar spine discs
  IL-1-induced PG loss in disc organ culture: significantly attenuates
